Measurements from patent publication US11952362B2, “Compositions and methods for treating epigenetic disease” (The Regents of the University of California, priority 2018, dated 2024).

System: TNBS colitis
Experiment: TNBS colitis in mice
Type: in vivo
Conditions: for overall score: overall efficacy
Protocol: Male C57BL/6J mice 8-10 weeks old were purchased from The Jackson Laboratory (Sacramento, CA, USA). Mice were housed 4 per cage, maintained on a 12:12 hour light-dark cycle and given access to food and water ad libitum. Following an acclimatization period of 3 to 5 days, trinitrobenzene sulfonic acid (TNBS, Millipore Sigma, St. Louis, MO, USA) colitis was induced by intracolonic (i.c.) injection of 0.05 ml TNBS solution (5 mg in 40% ethanol) via a polyethylene cannula (BD Intramedic PE-20 tubing, Thermo Fisher Scientific, Santa Clara, CA, USA) inserted 3.5 cm from the anal verge under isoflurane anesthesia (4% in O2 induction, 2.5-3% maintenance). Control mice received an injection of 40% ethanol (0.05 ml, i.c.). To test the effectiveness of the HDAC analogs, mice received a daily injection (0.1 ml, i.c.) of a selective HDAC class II inhibitor analog (50 mg/kg MJK001-013) or vehicle (5% dimethyl sulfoxide, Millipore Sigma) beginning one day prior to TNBS colitis induction (day −1) for a period of 5 days. Separate groups of mice received HDAC inhibitors or vehicle administered by daily oral gavage (50 mg/kg, 0.25 ml, p.o.). All analogs tested were first dissolved in dimethyl sulfoxide (DMSO) with rapid vortexing and subsequent dilution to 5% in sterile phosphate buffered saline (PBS; Gibco, Thermo Fisher Scientific). Vehicle contained 5% DMSO in sterile PBS. Prior to use, all solids were stored in amber (light-blocking) storage vials at 4° C. On the first day of administration, stock solutions were prepared, aliquoted and stored at −20° C. for daily use. Upon thawing, each aliquot was vortexed prior to intracolonic injection (via a polyethylene cannula) or oral gavage (20 ga×38 mm, Instech, Thermo Fisher Scientific). Following all in vivo experiments, animals were euthanized on day 4 by CO2 inhalation and cervical dislocation and the distal colons removed for further study.
Disease severity was assessed by weight loss and measurement of colon length and determination of clinical and histological damage scores on day 4 of the protocol. Briefly, clinical scores were calculated on a scale of 0-3 for degree of weight loss, bleeding, stool consistency and presence of rectal prolapse. Sections of colon (5 μm) fixed in 10% formalin, paraffin-embedded and stained with hematoxylin and eosin (H&E) were used for histological scoring using an AxioImager. Z1 microscope equipped with AxioVision software version 4.6 (Zeiss, Jena, Germany). Scoring was performed by two independent investigators blinded to the treatment conditions and resulting scores averaged. Scores were assigned based on the degree of crypt damage (0-4), polymorphonuclear neutrophil (PMN) infiltrate (0-3), erosion (0-3), and edema (0-3).
Statistical analyses were performed using GraphPad Prism (Version 5.0a; GraphPad Software, La Jolla, CA, USA). Differences were determined by unpaired t-test, 1-way analysis of variance, or a 2-way analysis of variance with Tukey's post-test. A p value <0.05 was considered to be statistically significant. Data presented are means±SEM for n animals.
Novel chemical HDAC inhibitors were developed aiming to target specific isoforms of the HDAC Class IIA members. Overall, as shown above, compounds have been synthesized, named MJK-001, -002, -003, -004, -005, -006, -007, -008, -009, -010, -011, -012 & -013. The effect of selective HDAC class IIA isoform inhibition during development of colitis in mice in vivo during TNBS administration was assessed. This mouse model is known to recapitulate many features of human Crohn's Disease. Mice received either an intracolonic (i.c.) injection or oral delivery (p.o.) of the MJK compounds once daily for a period of 5 days and health status, weight loss, and disease activity were monitored. Mice (male C57BL/6J, 8-10 wks old) are weighed and monitored daily. On the final day, blood, feces, and colonic samples for RNA, protein and histology are collected for downstream analysis. […]

[1] = i.c. administration, 50 mg/kg daily for 5 days, day 4, vs vehicle-treated mice, hydrochloride, 50 mg/kg
[2] = i.c. administration, 50 mg/kg daily for 5 days, day 4, vs vehicle-treated mice, listed as MJK-008, hydrochloride, 50 mg/kg
[3] = oral administration (p.o., 50 mg/kg daily)
[4] = i.c. administration, 50 mg/kg daily for 5 days, day 4, vs vehicle-treated mice, 50 mg/kg
[5] = i.c. administration, 50 mg/kg daily for 5 days, day 4, vs vehicle-treated mice, listed as MJK-004, 50 mg/kg
[6] = i.c. administration, 50 mg/kg daily for 5 days, day 4, vs vehicle-treated mice, listed as MJK-001, 50 mg/kg

Cl.Cn1c(/C=C/C(=O)NO)ccc1/C=C/C(=O)c1cccnc1 [MJK008, (E)-N-Hydroxy-3-(1-methyl-5-((E)-3-oxo-3-(pyridin-3-yl)prop-1-en-1-yl)-1H-pyrrol-2-yl)ac-rylamide hydrochloride]
clinical score [1]: ♦♦
colon length [1]: ♦
histological score [1]: ♦♦♦
clinical score [2]: decreasing the clinical and histological score
colon length [2]: significant effect in preserving colon length
histological score [2]: decreasing the clinical and histological score
overall score (i.c. administration, hydrochloride): substantial effect on suppressing TNBS-induced colitis
clinical score [3]: highly efficient in reducing the clinical score
colon length [3]: preserving colon length
histology score [3]: decreasing the histology score

Cn1c(/C=C/C(=O)NO)ccc1/C=C/C(=O)c1cccs1 [MJK004, (E)-N-hydroxy-3-(1-methyl-5-((E)-3-oxo-3-(thiophen-2-yl)prop-1-en-1-yl)-1H-pyrrol-2-yl)acrylamide]
clinical score [4]: ♦♦
colon length [4]: ns
clinical score [5]: reduction in clinical scoring
colon length [5]: did not alter colon length

Cn1c(/C=C/C(=O)NO)ccc1/C=C/C(=O)c1cccnc1 [MJK006, (E)-N-hydroxy-3-(1-methyl-5-((E)-3-oxo-3-(pyridin-3-yl)prop-1-en-1-yl)-1H-pyrrol-2-yl)acrylamide]
clinical score [4]: ♦♦
colon length [4]: ♦♦
histological score [4]: ♦♦♦
histological score (i.c. administration, 50 mg/kg daily for 5 days, day 4, vs vehicle-treated mice, listed as MJK-006, 50 mg/kg): significant differences
overall score (i.c. administration): substantial effect on suppressing TNBS-induced colitis

Cn1c(/C=C/C(=O)NO)ccc1/C=C/C(=O)c1cccc(F)c1 [MJK001, (E)-3-(5-((E)-3-(3-Fluorophenyl)-3-oxoprop-1-en-1-yl)-1-methyl-1H-pyrrol-2-yl)-N-hydro-xyacrylamide]
histological score (i.c. administration, 50 mg/kg daily for 5 days, day 4, vs vehicle-treated mice): ♦♦
clinical score [4]: ♦♦
colon length [4]: ♦♦
clinical score [6]: statistical significance in the reduction of the clinical score
colon length [6]: increase of colon length
